Experiments:
PCSK9 = PCSK9 (Homo sapiens, UniProt Q8NBP7); assay: BODIPY-LDL uptake assay in HepG2 cells; type: cell-based; conditions: 5 μg/ml PCSK9, BODIPY-LDL
How it was run: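 Compounds pre-incubated 60 min with 5 μg/ml PCSK9 (0.2% DMSO), then added to HepG2 cells for 16 h; 1 μg/ml BODIPY-LDL added in serum-free medium for 5 h. Fluorescence (Ex 485/Em 520 nm) normalized to protein; PCSK9-only wells = 0%, no-PCSK9 wells = 100% uptake, giving percent increase in LDL uptake.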

High Fat Diet C57 Mice = assay: LDL-C lowering activity in high fat diet C57 mice; type: in vivo; conditions: Mus musculus, po, 168 h; C57 mice on high fat diet; 30 mg/Kg orally once a day, 7 days treatment, blood on day 7; read-out: % Change Vs Vehicle Control in LDLc
Procedure: LDL-C Lowering Activity—in High Fat Diet C57 Mice
The in-vivo LDL-c lowering for test compound was tested in C57 mice which were kept on high fat diet for 4 weeks and the blood was collected by retro-orbital sinus puncture method under light ether anesthesia on day 0 (pretreatment). Animal are grouped based on LDL-c levels, after that 7 days treatment with vehicle or test compound orally at a dose of 30 mpk dose once a day was given. On completion of treatment on day 7 of the treatment the blood was collected for LDL-c and TC levels measurement.

Sequence of PCSK9 (Q8NBP7 153-692): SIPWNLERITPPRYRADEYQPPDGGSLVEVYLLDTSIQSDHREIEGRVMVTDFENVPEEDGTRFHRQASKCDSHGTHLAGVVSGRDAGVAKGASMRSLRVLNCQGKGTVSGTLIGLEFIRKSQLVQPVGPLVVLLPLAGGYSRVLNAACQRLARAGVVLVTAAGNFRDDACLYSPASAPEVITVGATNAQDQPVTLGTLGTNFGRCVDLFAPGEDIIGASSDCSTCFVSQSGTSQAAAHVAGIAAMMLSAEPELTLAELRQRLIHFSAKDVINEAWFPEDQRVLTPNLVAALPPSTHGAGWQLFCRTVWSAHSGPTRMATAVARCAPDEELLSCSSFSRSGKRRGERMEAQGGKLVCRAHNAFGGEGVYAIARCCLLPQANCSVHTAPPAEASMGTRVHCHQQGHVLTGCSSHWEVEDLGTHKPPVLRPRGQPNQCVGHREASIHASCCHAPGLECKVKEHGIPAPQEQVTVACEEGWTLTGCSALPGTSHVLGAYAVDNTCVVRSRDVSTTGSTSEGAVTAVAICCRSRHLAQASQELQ

Row | Compound | % increase in LDL Uptake (PCSK9; 1 μM test compound) [%] | % increase in LDL Uptake (PCSK9; 10 μM test compound) [%] | % increase in LDL Uptake (PCSK9; 30 μM test compound) [%] | change in vivo at 30 mg/kg (High Fat Diet C57 Mice) [%]
1 | O=C(c1cccc(C2(O)COC2)c1)N1CCC(c2ccc(C(F)(F)F)cc2)CC1 [Example 47, (3-(3-hydroxyoxetan-3-yl)phenyl)(4-(4-(trifluoromethyl)phenyl)piperidin-1-yl)methanone] | 17 | 189 | 383 | -5 ± 7
2 | COC1(c2ccc(C(=O)N3CC4CN(c5ccc(C(F)(F)F)nc5)CC4C3)cc2)COC1 (centres unmarked) [Example 206, (4-(3-methoxyoxetan-3-yl)phenyl)(5-(6-(trifluoromethyl)pyridin-3-yl)hexahydropyrrolo[3,4-c]pyrrol-2(1H)-yl)methanone] | 0 | 81 | 127 | -18.6 ± 5.7
3 | COC1(c2ccc(C(=O)N3CCC(c4ccc(C(F)(F)F)cc4)CC3)cc2)CCNCC1 [Example 144, (4-(4-methoxypiperidin-4-yl)phenyl)(4-(4-(trifluoromethyl)phenyl)piperidin-1-yl)methanone] | 1 | 16 | 77 | -66 ± 10
4 | O=C(c1ccc(C2(O)CCOCC2)cc1)N1CCC(c2ccc(C(F)(F)F)cc2)CC1 [Example 142, (4-(4-hydroxytetrahydro-2H-pyran-4-yl)phenyl)(4-(4-(trifluoromethyl)phenyl)piperidin-1-yl)methanone] | 0 | 77 | 16 | -26 ± 10
5 | O=C(c1ccc(C2(O)COC2)cc1)N1CC2CN(c3ccc(C(F)(F)F)cc3)CC2C1 (centres unmarked) [Example 11, (4-(3-hydroxyoxetan-3-yl)phenyl)(5-(4-(trifluoromethyl)phenyl)hexahydropyrrolo[3,4-c]pyrrol-2 (1H)-yl)methanone] | 6 | 59 | 116 | -48 ± 5
6 | CCOC1(c2ccc(C(=O)N3CCC(c4ccc(C(F)(F)F)cc4)CC3)cc2)COC1 [Example 43, (4-(3-ethoxyoxetan-3-yl)phenyl)(4-(4-(trifluoromethyl)phenyl)piperidin-1-yl)methanone] | 0 | 12 | 5 | -27 ± 10
7 | O=C(c1cccc(C2(O)COC2)c1)N1CCC(c2ccc(C(F)F)cc2)CC1 [Example 66, (4-(4-(difluoromethyl)phenyl)piperidin-1-yl)(3-(3-hydroxyoxetan-3-yl)phenyl)methanone] | 0 | 24 | 159 | -24 ± 7.1
8 | COC1(c2ccc(C(=O)N3CCC(c4ccc(C(F)(F)F)cc4)CC3)cc2)COC1 [Example 2, (4-(3-methoxyoxetan-3-yl)phenyl)(4-(4-(trifluoromethyl)phenyl)piperidin-1-yl)methanone] | 13 | 86 | 172 | -45 ± 5
9 | OC1(c2ccc(N3CCC(c4ccc(C(F)(F)F)cc4)CC3)cc2)COC1 [Example 8, 3-(4-(4-(4-(trifluoromethyl)phenyl)piperidin-1-yl)phenyl)oxetan-3-ol] | 0 | 73 | 114 | -30 ± 8
10 | O=C(c1ccc(C2(O)COC2)cc1)N1CCCC(c2ccc(C(F)(F)F)cc2)C1 (centres unmarked) [Example 34, (4-(3-hydroxyoxetan-3-yl)phenyl)(3-(4-(trifluoromethyl)phenyl)piperidin-1-yl)methanone] | 27 | 86 | 252 | -31 ± 8
11 | O=C(c1ccc(C2(O)COC2)cc1)N1CC2CC(O)(c3ccc(C(F)(F)F)cc3)CC2C1 (centres unmarked) [Example 105, (5-hydroxy-5-(4-(trifluoromethyl)phenyl)hexahydrocyclopenta[c]pyrrol-2(1H)-yl)(4-(3-hydroxyoxetan-3-yl)phenyl)methanone] | 92 | 130 | 101 | -7 ± 7

Source: patent publication US20230089247A1, “NOVEL COMPOUNDS SUITABLE FOR THE TREATMENT OF DYSLIPIDEMIA” (ZYDUS LIFESCIENCES LIMITED, priority 2019, published 2023)
